The values below come from US8623859B2, “Bradykinin B1 antagonists” (Evotec AG, priority 2008, dated 2014).

Each structure is given as a SMILES string. pIC50: −log10 of the molar value. Structures can show the parent of a compound that is named as a salt.

The target of the test is T1, human B1 (Homo sapiens, UniProt P46663).
T1 construct: host or cells: CHO-K1
T1 sequence (P46663 1-353): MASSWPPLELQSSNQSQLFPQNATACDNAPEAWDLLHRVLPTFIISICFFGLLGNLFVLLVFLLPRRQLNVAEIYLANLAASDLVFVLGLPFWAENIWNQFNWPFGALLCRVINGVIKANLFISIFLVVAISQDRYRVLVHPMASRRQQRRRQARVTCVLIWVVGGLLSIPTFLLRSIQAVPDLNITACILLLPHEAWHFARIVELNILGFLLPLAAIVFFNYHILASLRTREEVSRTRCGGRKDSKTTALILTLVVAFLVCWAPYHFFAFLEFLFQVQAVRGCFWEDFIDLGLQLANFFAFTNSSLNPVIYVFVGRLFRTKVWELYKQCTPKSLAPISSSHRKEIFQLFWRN
Put plainly: Calcium flux assay for Bradykinin B1 antagonist, CHO-K1 cell line expressing human B1. The settings on record: CHO-K1 cells expressing human B1, agonist Lys-(Des-Arg)-Bradykinin, read-out: Potency (IC50 value against human B1). In kind it is cell-based. The procedure, abridged:
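Inhibition of B1 agonist-evoked intracellular Ca2+ rise was followed by continuous fluorescence at 538 nm, with integrated, background-normalized signals plotted versus log compound concentration. Test compounds (eight 10-fold dilutions, triplicate, 1% DMSO final) were added 30 min at 25° C beforehand to Fluo-4AM-loaded human B1 CHO-K1 cells in pH 7.4 assay buffer.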

The pIC50 is the IC50 on a negative log10 scale, so that one unit is a factor of ten. For the compound `COc1cc(C)c(S(=O)(=O)N(Cc2cc(C(=O)N3CCN(CC4CCN(C)CC4)CC3)co2)C2CC2)c(C)c1` [Ex 89, N-Cyclopropyl-4-methoxy-2,6-dimethyl-N-{[4-({4-[(1-methylpiperidin-4-yl)methyl]piperazin-1-yl}carbonyl)furan-2-yl]methyl}benzenesulfonamide], the pIC50 was greater than 8.00. Under `COc1cc(C)c(S(=O)(=O)N(C)Cc2cc(C(=O)NC(C)c3ccc(CN4CCCC4)cc3)co2)c(C)c1` (stereo not drawn) [Ex 90, 5-({[(4-Methoxy-2,6-dimethylphenyl)sulfonyl](methyl)amino}methyl)-N-{1-[4-(pyrrolidin-1-ylmethyl)phenyl]ethyl}furan-3-carboxamide] stands 6.00 to 7.00; under `COc1cc(C)c(S(=O)(=O)N(C)Cc2cc(C(=O)NC(C)c3ccc(CN4CCC(O)C4)cc3)co2)c(C)c1` (stereo not drawn) [Ex 91, N-(1-{4-[(3-Hydroxypyrrolidin-1-yl)methyl]phenyl}ethyl)-5-({[(4-methoxy-2,6-dimethylphenyl)sulfonyl](methyl)amino}methyl)furan-3-carboxamide], 6.00 to 7.00; under `COc1cc(C)c(S(=O)(=O)N(C)Cc2cc(C(=O)NCCc3ccc(CN4CC[C@H](N(C)C)C4)cc3)co2)c(C)c1` [Ex 92, N-[2-(4-{[(3S)-3-(Dimethylamino)pyrrolidin-1-yl]methyl}phenyl)ethyl]-5-({[(4-methoxy-2,6-dimethylphenyl)sulfonyl](methyl)amino}methyl)furan-3-carboxamide, trifluoroacetate], 6.00 to 7.00. `COc1cc(C)c(S(=O)(=O)N(C)Cc2cc(C(=O)NCc3ccc(C4=NCC(C)(C)N4)cc3)co2)c(C)c1` [Ex 93, N-[4-(5,5-Dimethyl-4,5-dihydro-1H-imidazol-2-yl)benzyl]-5-({[(4-methoxy-2,6-dimethylphenyl)sulfonyl](methyl)amino}methyl)furan-3-carboxamide trifluoroacetate]: the pIC50 was 7.00 to 8.00. The figure for `COc1cc(C)c(S(=O)(=O)N(C)Cc2cc(C(=O)NCCc3ccc(C4=NCC(C)(C)N4)cc3)co2)c(C)c1` [Ex 94, N-{2-[4-(5,5-Dimethyl-4,5-dihydro-1H-imidazol-2-yl)phenyl]ethyl}-5-({[(4-methoxy-2,6-dimethylphenyl)sulfonyl](methyl)amino}methyl)furan-3-carboxamide trifluoroacetate] is greater than 8.00; for `COc1cc(C)c(S(=O)(=O)N(C)Cc2cc(C(=O)N3CCCC(c4ccc(CN5CCCC5)cc4)C3)co2)c(C)c1` (stereo not drawn) [Ex 95, 4-Methoxy-N,2,6-trimethyl-N-{[4-({3-[4-(pyrrolidin-1-ylmethyl)phenyl]piperidin-1-yl}carbonyl)furan-2-yl]methyl}benzenesulfonamide trifluoroacetamide] it is 6.00 to 7.00; for `COc1cc(C)c(S(=O)(=O)N(C)Cc2cc(C(=O)NCc3ccc(CNCc4ccncc4)cc3)co2)c(C)c1` [Ex 96, 5-({[(4-Methoxy-2,6-dimethylphenyl)sulfonyl](methyl)amino}methyl)-N-(4-{[(pyridin-4-ylmethyl)amino]methyl}benzyl)furan-3-carboxamide trifluoroacetate] it is 6.00 to 7.00. Under `COc1cc(C)c(S(=O)(=O)N(C)Cc2cc(C(=O)NCc3ccc(CN4CCC4)cc3)co2)c(C)c1` [Ex 97, N-[4-(Azetidin-1-ylmethyl)benzyl]-5-({[(4-methoxy-2,6-dimethylphenyl)sulfonyl](methyl)amino}methyl)furan-3-carboxamide trifluoroacetate] stands 7.00 to 8.00; under `COc1cc(C)c(S(=O)(=O)N(C)Cc2cc(C(=O)N(C)CCc3ccc(C4=NCCN4C)cc3)co2)c(C)c1` [Ex 98, 5-({[(4-Methoxy-2,6-dimethylphenyl)sulfonyl](methyl)amino}methyl)-N-methyl-N-{2-[4-(1-methyl-4,5-dihydro-1H-imidazol-2-yl)phenyl]ethyl}furan-3-carboxamide trifluoroacetamide], 6.00 to 7.00.

For `COc1cc(C)c(S(=O)(=O)N(C)Cc2cc(C(=O)NCc3ccc(CN4CCCCC4C)cc3)co2)c(C)c1` (stereo not drawn) [Ex 99, 5-({[(4-Methoxy-2,6-dimethylphenyl)sulfonyl](methyl)amino}methyl)-N-{4-[(2-methylpiperidin-1-yl)methyl]benzyl}furan-3-carboxamide trifluoroacetate], the pIC50 is 6.00 to 7.00. In the case of `COc1cc(C)c(S(=O)(=O)N(C)Cc2cc(C(=O)NCc3ccc(CN4CCCCC4)cc3)co2)c(C)c1` [Ex 100, 5-({[(4-Methoxy-2,6-dimethylphenyl)sulfonyl](methyl)amino}methyl)-N-[4-(piperidin-1-ylmethyl)benzyl]furan-3-carboxamide trifluoroacetate], the pIC50 was 6.00 to 7.00. Under `COc1cc(C)c(S(=O)(=O)N(C)Cc2cc(C(=O)NCc3ccc(CN4CCCCCC4)cc3)co2)c(C)c1` [Ex 101, N-[4-(Azepan-1-ylmethyl)benzyl]-5-({[(4-methoxy-2,6-dimethylphenyl)sulfonyl](methyl)amino}methyl)furan-3-carboxamide trifluoroacetate] stands 6.00 to 7.00; under `CCN(Cc1cc(C(=O)N(C)Cc2ccc(CN3CCCC3)cc2)co1)S(=O)(=O)c1c(C)cc(OC)cc1C` [Ex 102, 5-({Ethyl[(4-methoxy-2,6-dimethylphenyl)sulfonyl]amino}methyl)-N-methyl-N-[4-(pyrrolidin-1-ylmethyl)benzyl]furan-3-carboxamide trifluoroacetate], 6.00 to 7.00. Under `CCN(Cc1cc(C(=O)N(C)Cc2ccc(C3=NCCN3)cc2)co1)S(=O)(=O)c1c(C)cc(OC)cc1C` [Ex 103, N-[4-(4,5-Dihydro-1H-imidazol-2-yl)benzyl]-5-({ethyl[(4-methoxy-2,6-dimethylphenyl)sulfonyl]amino}methyl)-N-methylfuran-3-carboxamide trifluoroacetate] stands 7.00 to 8.00; under `CCN(Cc1cc(C(=O)NCCc2ccc(C3=NCCN3)cc2)co1)S(=O)(=O)c1c(C)cc(OC)cc1C` [Ex 104, N-{2-[4-(4,5-Dihydro-1H-imidazol-2-yl)phenyl]ethyl}-5-({ethyl[(4-methoxy-2,6-dimethylphenyl)sulfonyl]amino}methyl)furan-3-carboxamide trifluoroacetate], 7.00 to 8.00. Under `COc1cc(C)c(S(=O)(=O)N(Cc2cc(C(=O)N3CCN(CC4CCN(C)CC4)CC3)co2)C2CC2)c(C)c1` [Ex 105, N-Cyclopropyl-4-methoxy-2,6-dimethyl-N-{[4-({4-[(1-methylpiperidin-4-yl)methyl]piperazin-1-yl}carbonyl)furan-2-yl]methyl}benzenesulfonamide trifluoroacetate] stands 7.00 to 8.00. For `COc1cc(C)c(S(=O)(=O)N(Cc2cc(C(=O)N3CCN(CC4CCCN(C)C4)CC3)co2)C2CC2)c(C)c1` (stereo not drawn) [Ex 106, N-Cyclopropyl-4-methoxy-2,6-dimethyl-N-{[4-({4-[(1-methylpiperidin-3-yl)methyl]piperazin-1-yl}carbonyl)furan-2-yl]methyl}benzenesulfonamide trifluoroacetate], the negative-log IC50 (pIC50) was 7.00 to 8.00.

In the case of `COc1cc(C)c(S(=O)(=O)N(Cc2cc(C(=O)N3CCN(C4CC5CCC(C4)N5C)CC3)co2)C2CC2)c(C)c1` (stereo not drawn) [Ex 107, N-Cyclopropyl-4-methoxy-2,6-dimethyl-N-[(4-{[4-(8-methyl-8-azabicyclo[3.2.1]oct-3-yl)piperazin-1-yl]carbonyl}furan-2-yl)methyl]benzenesulfonamide trifluoroacetate], the pIC50 was 7.00 to 8.00. Under `COc1cc(C)c(S(=O)(=O)N(Cc2cc(C(=O)N3CCN(C4CC(C)(C)N(C)C(C)(C)C4)CC3)co2)C2CC2)c(C)c1` [Ex 108, N-Cyclopropyl-4-methoxy-2,6-dimethyl-N-[(4-{[4-(1,2,2,6,6-pentamethylpiperidin-4-yl)piperazin-1-yl]carbonyl}furan-2-yl)methyl]benzenesulfonamide trifluoroacetate] stands 6.00 to 7.00; under `COc1cc(C)c(S(=O)(=O)N(Cc2cc(C(=O)N3CCN(CCN4CCCCC4)CC3)co2)C2CC2)c(C)c1` [Ex 109, N-Cyclopropyl-4-methoxy-2,6-dimethyl-N-[(4-{[4-(2-piperidin-1-ylethyl)piperazin-1-yl]carbonyl}furan-2-yl)methyl]benzenesulfonamide trifluoroacetate], 6.00 to 7.00. The figure for `COc1cc(C)c(S(=O)(=O)N(Cc2cc(C(=O)N3CCN(CCc4ccncc4)CC3)co2)C2CC2)c(C)c1` [Ex 110, N-Cyclopropyl-4-methoxy-2,6-dimethyl-N-[(4-{[4-(2-pyridin-4-ylethyl)piperazin-1-yl]carbonyl}furan-2-yl)methyl]benzenesulfonamide trifluoroacetate] is 6.00 to 7.00; for `COc1cc(C)c(S(=O)(=O)N(Cc2cc(C(=O)N3CCN(Cc4cccnc4)CC3)co2)C2CC2)c(C)c1` [Ex 111, N-Cyclopropyl-4-methoxy-2,6-dimethyl-N-[(4-{[4-(pyridin-3-ylmethyl)piperazin-1-yl]carbonyl}furan-2-yl)methyl]benzenesulfonamide trifluoroacetate] it is 6.00 to 7.00. As to `COc1cc(C)c(S(=O)(=O)N(Cc2cc(C(=O)N3CCN(CCN4CCCC4)CC3)co2)C2CC2)c(C)c1` [Ex 112, N-Cyclopropyl-4-methoxy-2,6-dimethyl-N-[(4-{[4-(2-pyrrolidin-1-ylethyl)piperazin-1-yl]carbonyl}furan-2-yl)methyl]benzenesulfonamide trifluoroacetate], the pIC50 is 7.00 to 8.00.
